Non-standard residues stand in square brackets, D forms with d. Residues, ends and D or L forms follow the SMILES beside them. ξ: configuration not given here. *: point of attachment. Dansyl = CN(C)c1cccc2c(S(=O)(=O)*)cccc12; ξPip = O=C(O)C1CCCCN1
test system: not listed separately; assay: acute toxicity (LD50), intraperitoneal administration in mice; assay type: in vivo, mice (male, 20 g); conditions: comparison with N^2 -dansyl-L-argininamides; route and species not restated

Compound | LD50 values (comparison dansyl compounds)
CCCCNC(=O)[C@H](CCCNC(=N)N)NS(=O)(=O)c1cccc2c(N(C)C)cccc12 [N^2 -dansyl-N-butyl-L-argininamide, reference compound] | 75 milligrams per kilogram
CCCCN(C)C(=O)[C@H](CCCNC(=N)N)NS(=O)(=O)c1cccc2c(N(C)C)cccc12 [N^2 -dansyl-N-methyl-N-butyl-L-argininamide, reference compound] | 70 milligrams per kilogram

same assay, conditions: intraperitoneal, mice (male, 20 g)

Compound | LD50
COc1cc2ccc(S(=O)(=O)N[C@@H](CCCNC(=N)N)C(=O)N(CC(=O)O)C3CCCCC3)cc2cc1OC [N^2-(6,7-dimethoxy-2-naphthylsulfonyl)-L-arginyl-N-cyclohexylglycine] | > 1,500 mg/kg

same assay, conditions: mouse, in vivo, ip, intraperitoneal, mice (male, 20 g); read-out: LD50

Compound | LD50
Cc1ccc2ccc(S(=O)(=O)N[C@@H](CCCNC(=N)N)C(=O)N(CC(=O)O)CC3CCCO3)cc2c1 (stereo partly drawn) [N^2-(7-methyl-2-naphthylsulfonyl)-L-arginyl-N-tetrahydrofurfurylglycine] | 600 mg/kg
COc1ccc2cc(S(=O)(=O)N[C@@H](CCCNC(=N)N)C(=O)N(CC3CCCCC3)[C@@H](C)C(=O)O)cc(OC)c2c1 [N^2-(4,6-dimethoxy-2-naphthylsulfonyl)-L-arginyl-N-cyclohexylmethylalanine] | > 1500 mg/kg
CC1CCN(C(=O)[C@H](CCCNC(=N)N)NS(=O)(=O)c2cccc3ccccc23)C(C(=O)O)C1 (stereo partly drawn) [1-N^2-(1-naphthylsulfonyl)-L-arginyl!-4-methyl-2-piperidinecarboxylic acid] | 700 to 1000 mg/kg
COCCN(CC(=O)O)C(=O)[C@H](CCCNC(=N)N)NS(=O)(=O)c1ccc2cc(OC)c(OC)cc2c1 [N^2-(6,7-dimethoxy-2-naphthylsulfonyl)-L-arginyl-N-(2-methoxyethyl)glycine] | 1900 to 2400 mg/kg
COCCN(CC(=O)O)C(=O)[C@H](CCCNC(=N)N)NS(=O)(=O)c1ccc2ccc(OC)cc2c1 [N^2-(7-methoxy-2-naphthylsulfonyl)-L-arginyl-N-(2-methoxyethyl)glycine] | 2000 mg/kg
COc1cc2ccc(S(=O)(=O)N[C@@H](CCCNC(=N)N)C(=O)N(CC(=O)O)CC3CCCCC3)cc2cc1OC [N^2-(6,7-dimethoxy-2-naphthylsulfonyl)-L-arginyl-N-cyclohexylmethylglycine] | > 1500 mg/kg
COc1cc2ccc(S(=O)(=O)N[C@@H](CCCNC(=N)N)C(=O)N3Cc4ccccc4CC3C(=O)O)cc2cc1OC (stereo partly drawn) [2-N^2-(6,7-dimethoxy-2-naphthylsulfonyl)-L-arginyl!-1,2,3,4-tetrahydroisoquinoline-3-carboxylic acid] | > 1000 mg/kg
COc1cc2ccc(S(=O)(=O)N[C@@H](CCCNC(=N)N)C(=O)N(CC(=O)O)CC3CCCO3)cc2cc1OC (stereo partly drawn) [N^2-(6,7-dimethoxy-2-naphthylsulfonyl)-L-arginyl-N-tetrahydrofurfurylglycine] | 620 mg/kg
CCOCCN(CCC(=O)O)C(=O)[C@H](CCCNC(=N)N)NS(=O)(=O)c1ccc2cc(OC)c(OC)cc2c1 [N^2-(6,7-dimethoxy-2-naphthylsulfonyl)-L-arginyl-N-(2-ethoxyethyl)-β-alanine] | 660 to 1000 mg/kg
CCSCCN(CC(=O)O)C(=O)[C@H](CCCNC(=N)N)NS(=O)(=O)c1ccc2cc(OC)c(OC)cc2c1 [N^2-(6,7-dimethoxy-2-naphthylsulfonyl)-L-arginyl-N-(2-ethylthioethyl)glycine] | > 1000 mg/kg
COc1ccc2ccc(S(=O)(=O)N[C@@H](CCCNC(=N)N)C(=O)N3CCOCC3C(=O)O)cc2c1 (stereo partly drawn) [4-N^2-(7-methoxy-2-naphthylsulfonyl)-L-arginyl!-3-morpholinecarboxylic acid] | > 1000 mg/kg
COc1cc2ccc(S(=O)(=O)N[C@@H](CCCNC(=N)N)C(=O)N(CC(=O)O)C3CCCCC3)cc2cc1OC [N^2-(6,7-dimethoxy-2-naphthylsulfonyl)-L-arginyl-N-cyclohexylglycine] | 1500 mg/kg
CN(C)c1cccc2c(S(=O)(=O)N[C@@H](CCCNC(=N)N)C(=O)N3CCCCC3C(=O)O)cccc12 (stereo partly drawn) [1-N^2-(5-dimethylamino-1-naphthylsulfonyl)-L-arginyl!-2-piperidinecarboxylic acid] (Dansyl-Arg-[ξPip]-OH) | 700 to 1000 mg/kg
COc1cc2ccc(S(=O)(=O)N[C@@H](CCCNC(=N)N)C(=O)N3Cc4ccccc4C3C(=O)O)cc2cc1OC (stereo partly drawn) [2-N^2-(6,7-dimethoxy-2-naphthylsulfonyl)-L-arginyl!-1-isoindolinecarboxylic acid] | > 1000 mg/kg
CCCCN(C(=O)[C@H](CCCNC(=N)N)NS(=O)(=O)c1ccc2cc(OC)c(OC)cc2c1)[C@@H](C)C(=O)O [N^2-(6,7-dimethoxy-2-naphthylsulfonyl)-L-arginyl-N-butylalanine] | > 1500 mg/kg
COCCN(CC(=O)O)C(=O)[C@H](CCCNC(=N)N)NS(=O)(=O)c1cc(OC)c2cc(OC)ccc2c1 [N^2-(4,6-dimethoxy-2-naphthylsulfonyl)-L-arginyl-N-(2-methoxyethyl)glycine] | 660 to 1000 mg/kg

target: T1, thrombin (Bos taurus, UniProt P00735); assay: fibrinogen coagulation time (concentration required to prolong the coagulation time by a factor of two); assay type: biochemical; conditions: bovine fibrinogen, thrombin 5 units/ml, borate saline buffer pH 7.4, 25° C; control 50-55 seconds prolonged to 100-110 seconds
T1 construct: clotting of bovine fibrinogen
Procedure: The measurement of the fibrinogen coagulation time was conducted as follows:
Immediately after mixing, the reaction mixture was transferred from the ice bath to a bath maintained at 25° C. Coagulation times were taken as the period between the time of transference to the 25° C bath and the time of the first appearance of fibrin threads. […] The term "concentration required to prolong the coagulation time by a factor of two" is the concentration of an active ingredient required to prolong the normal coagulation time 50-55 seconds to 100-110 seconds.

Compound | IC (2-fold clotting time)
COCCN(CC(=O)Oc1ccc2c(c1)CCC2)C(=O)[C@H](CCCNC(=N)N)NS(=O)(=O)c1ccc2cc(OC)c(OC)cc2c1 [compound 203] | 30 µM
COCCN(CCCC(=O)O)C(=O)[C@H](CCCNC(=N)N)NS(=O)(=O)c1ccc2cc(OC)c(OC)cc2c1 [compound 17] | 2.5 µM
COc1ccc2ccc(S(=O)(=O)N[C@@H](CCCNC(=N)N)C(=O)N(CCc3ccccc3)CC(=O)O)cc2c1 [compound 64] | 20 µM
Cc1ccc2ccc(S(=O)(=O)N[C@@H](CCCNC(=N)N)C(=O)N3CCC(C(C)C)CC3C(=O)O)cc2c1 (stereo partly shown) [compound 175] | 0.1 µM
COc1ccc2ccc(S(=O)(=O)N[C@@H](CCCNC(=N)N)C(=O)N(CC(=O)O)Cc3ccco3)cc2c1 [compound 162] | 0.2 µM
CCCCCN(CC(=O)O)C(=O)[C@H](CCCNC(=N)N)NS(=O)(=O)c1ccc2cc(OC)c(OC)cc2c1 [compound 7] | 5 µM

Source: US4073913A, “N^2 -arylsulfonyl-L-argininamides and the pharmaceutically acceptable salts thereof” (Mitsubishi Chemical Industries Limited, priority 1974, dated 1978)
